According to patent US20250313635A1, “ANTI-INTEGRIN ANTIBODIES AND USES THEREOF” (Merck Sharp & Dohme LLC, priority 2022, published 2025):

Legend:
[1] = tested on: Normal human lung fibroblasts; test: αSMA imaging, TGFβ-induced αSMA expression; format: cell-based; conditions: TGFβ 5 ng/mL, pre-treated 30 minutes, MK-0429 (10 µM) or SB-525334 (10 μM), 48 hours
Experimental: (§1) αSMA imaging. Primary cells (passage 3-5) were grown on Cell carrier Ultra, collagen Type 1 coated 96-well plates (Perkin Elmer, #6055700) at a density of 25,000 cells/well. Once the cells adhere, they were starved in serum free media for 24 hours followed by addition of treatments, i.e., 5 ng/mL TGFβ (Biolegend #580702)±inhibitors. Cells were pre-treated with inhibitors for 30 minutes prior to the addition of TGFβ stimulation. 48 hours post treatment, the cells were fixed in 4% methanol free paraformaldehyde (ThermoFisher Scientific #28908) for 20 minutes at room temperature and incubated with anti-alpha smooth muscle Actin antibody (Abcam #ab7817) at 1:4000 overnight at 4° C. Following primary antibody incubation, cells were incubated with Goat anti-mouse secondary antibody (ThermoFisher Scientific #A32723) at 1:500 and Hoechst (ThermoFisher Scientific #62249) at 1:1000 for one hour at RT. The fixed and stained cells were images for immunofluorescence on Perkin Elmer's Opera Phenix high content Imager.

mαvβ5 = target: T1, mαvβ5 (Mus musculus, UniProt O70309+P43406); test: Mouse AlphaLISA integrin-ligand blocking assay (vitronectin); format: biochemical; conditions: Table 12; read-out: IC50 Mouse integrin AlphaLISA assays mαvβ5
T1 construct: The full extracellular domains for all α and β integrin subunits; (GGGS)3 linker (C); acidic coiled-coil with cysteine (C); GG-Avitag (C); hexa-histidine tag (C); basic coiled-coil with cysteine (C); made in house; host or cells: Expi293 cells
Experimental: (§2) Integrin AlphaLISA assay. In the AlphaLISA integrin assays, we used a HEPES based buffer (25 mM HEPES pH 7.4, 137 mM NaCl, 1 mM MgCl2, 1 mM MnCl2, 2 mM CaCl2, 2.7 mM KCl, and 0.05% Tween 20). Optimal assay conditions were determined with a titration of the reagents for signal noise ratio (S/N), linear range, etc. For the respective integrins, we used the final concentrations described in Table 9.
(§3) Briefly, the testing antibody (8 μL) was added as a 4×(of Final testing concentration) solution in the HEPES buffer described previously into a 384w AlphaPlate™ (Perkin Elmer #6005350). Then the integrin and ligand were added sequentially as 8×(4 μL each). Plates were sealed and incubated at room temperature for two hours. Then 4×acceptor bead solution ([…]) was added, and the plates were resealed and incubated at room temperature (RT) for one hour. Finally, 4×([…]) donor beads solution was added in a darkened room and incubated for 45 minutes at room temperature. Plates were read on the Envision (Perkin Elmer) in AlphaScreen™ mode within three hours of donor bead addition.

mαvβ3 = target: T2, mαvβ3 (Mus musculus, UniProt O54890+P43406); test: as above; format: biochemical; conditions: Table 12; read-out: IC50 Mouse integrin AlphaLISA assays mαvβ3
T2 construct: The full extracellular domains for all α and β integrin subunits; (GGGS)3 linker (C); acidic coiled-coil with cysteine (C); GG-Avitag (C); hexa-histidine tag (C); basic coiled-coil with cysteine (C); made in house; host or cells: Expi293 cells
Experimental: as §2, §3

mouse αvβ1 = target: T3, mouse αvβ1 (Mus musculus, UniProt P09055+P43406); test: Cell adhesion assay, CHOK1-α5KO-mαvβ1 cells on fibronectin; format: cell-based; conditions: FIG. 11
T3 construct: expressed in transfected cells
Experimental: (§4) Cell adhesion assay. For plate preparation, Epic 384-well assay plates (Corning #5040) were washed with OptiMEM™ (Gibco #31985-070) and coated with murine fibronectin (Abcam #ab92784) at a concentration of 0.1 μg/well for CHO-α5KO-mαvβ1 cells; murine vitronectin (Abcam #ab92727) at 0.075 μg/well for CHO-mαvβ3 cells; or murine vitronectin at 0.125 μg/well for CHO-mαvβ5 (all at a volume of 25 μL/well in OptiMEM™), for one hour. Coating solution was then removed by flicking and plates were washed with OptiMEM™ and blocked with 25 μL/well of assay buffer (1% Ovalbumin (Sigma #A5503-10G) in OptiMEM™ containing 1×Pen-Strep (Gibco #15140-148)). A 5-minute baseline reading was taken on a Corning Epica Plate Reader (Model: Epic BT-157900) before removing the assay buffer and adding cells pre-incubated with inhibitors. The Epic™ plate reader detects cellular mass redistribution (adhesion) on the plate surface as a picometer wavelength shift over time. For inhibitor titration preparation: fivefold serial dilutions of small molecule inhibitor MK-0429 or antibody inhibitor Ab-31 were prepared in assay buffer at 4× the final concentration in a 384-well polypropylene plate in a volume of 15 μL per well, starting at a concentration of 800 nM. […]

human αvβ1 = target: T4, human αvβ1 (Homo sapiens, UniProt P05556+P06756); test: Latent TGFβ activation assay, TMLC / CHOK1-integrin co-culture (PAI-1 luciferase); format: cell-based; conditions: FIG. 5B
T4 construct: expressed in transfected cells
Experimental: Latent TGFβ activation assay. Transfected mink lung epithelial cell (TMLC) cell line containing the TGFβ responsive PAI-1 promoter driving luciferase expression (Mazzieri et al, Methods Mol. Biol. 142, 13-27 (2000)) and the CHO-K1 human and mouse αvβ×integrin cell lines were grown under optimized growth conditions to 90% confluency. TMLC cells were trypsinized and plated at 25,000 cells/well in 50 μL in Costar clear bottom white walled plates. In a separate plate, 25 μL of serially diluted antibodies at 4×concentration were added to wells containing 25 μL of either 25,000 cells of human or mouse αvβ×cells. After a brief mixing, the 50 μL mixture was transferred to the TMLC cell plates for a total volume of 100 μL and incubated at 37° C. for 16 hours. 100 μL of ONE-Glo kit (#PRE6120) was added to each well and read after three to five minutes on the Envision plate reader.

mouse αvβ5 = target: T5, mouse αvβ5 (Mus musculus, UniProt O70309+P43406); test: Cell adhesion assay, CHOK1-mαvβ5 cells on vitronectin; format: cell-based; conditions: FIG. 11
T5 construct: expressed in transfected cells
Experimental: as §4

[2] = tested on: IPF patient lung fibroblasts; test: αSMA imaging, TGFβ-induced αSMA expression; format: cell-based, human; set-up: inhibiting αSMA induction: dose or concentration left out as unconfirmed
Experimental: as §1

T4 sequence (P06756 31-1048): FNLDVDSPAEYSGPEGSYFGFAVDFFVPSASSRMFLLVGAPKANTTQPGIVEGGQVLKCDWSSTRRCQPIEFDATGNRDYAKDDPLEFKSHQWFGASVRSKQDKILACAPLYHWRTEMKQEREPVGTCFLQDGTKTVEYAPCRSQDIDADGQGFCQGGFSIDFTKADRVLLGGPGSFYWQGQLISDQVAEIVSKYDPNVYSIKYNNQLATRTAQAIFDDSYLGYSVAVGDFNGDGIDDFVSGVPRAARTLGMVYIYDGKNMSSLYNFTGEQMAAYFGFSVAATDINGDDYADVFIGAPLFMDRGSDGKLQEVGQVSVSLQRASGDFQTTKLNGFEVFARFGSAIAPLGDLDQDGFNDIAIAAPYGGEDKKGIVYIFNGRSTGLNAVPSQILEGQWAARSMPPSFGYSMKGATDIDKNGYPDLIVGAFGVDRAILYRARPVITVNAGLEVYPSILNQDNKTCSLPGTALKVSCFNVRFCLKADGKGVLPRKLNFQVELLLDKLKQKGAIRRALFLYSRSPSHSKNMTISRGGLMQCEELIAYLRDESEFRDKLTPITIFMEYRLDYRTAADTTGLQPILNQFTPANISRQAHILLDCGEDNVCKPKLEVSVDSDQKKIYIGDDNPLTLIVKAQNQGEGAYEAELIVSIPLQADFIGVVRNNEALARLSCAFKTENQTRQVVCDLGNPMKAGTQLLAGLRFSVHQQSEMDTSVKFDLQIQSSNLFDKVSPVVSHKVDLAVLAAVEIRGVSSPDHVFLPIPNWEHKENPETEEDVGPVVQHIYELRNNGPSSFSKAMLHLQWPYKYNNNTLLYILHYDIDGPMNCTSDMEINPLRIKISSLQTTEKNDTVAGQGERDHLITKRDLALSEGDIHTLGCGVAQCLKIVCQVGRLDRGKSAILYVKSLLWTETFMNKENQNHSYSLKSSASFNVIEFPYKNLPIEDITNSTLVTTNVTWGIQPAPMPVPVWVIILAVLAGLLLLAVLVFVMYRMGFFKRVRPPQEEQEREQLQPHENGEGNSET
T4 sequence (P05556 21-798): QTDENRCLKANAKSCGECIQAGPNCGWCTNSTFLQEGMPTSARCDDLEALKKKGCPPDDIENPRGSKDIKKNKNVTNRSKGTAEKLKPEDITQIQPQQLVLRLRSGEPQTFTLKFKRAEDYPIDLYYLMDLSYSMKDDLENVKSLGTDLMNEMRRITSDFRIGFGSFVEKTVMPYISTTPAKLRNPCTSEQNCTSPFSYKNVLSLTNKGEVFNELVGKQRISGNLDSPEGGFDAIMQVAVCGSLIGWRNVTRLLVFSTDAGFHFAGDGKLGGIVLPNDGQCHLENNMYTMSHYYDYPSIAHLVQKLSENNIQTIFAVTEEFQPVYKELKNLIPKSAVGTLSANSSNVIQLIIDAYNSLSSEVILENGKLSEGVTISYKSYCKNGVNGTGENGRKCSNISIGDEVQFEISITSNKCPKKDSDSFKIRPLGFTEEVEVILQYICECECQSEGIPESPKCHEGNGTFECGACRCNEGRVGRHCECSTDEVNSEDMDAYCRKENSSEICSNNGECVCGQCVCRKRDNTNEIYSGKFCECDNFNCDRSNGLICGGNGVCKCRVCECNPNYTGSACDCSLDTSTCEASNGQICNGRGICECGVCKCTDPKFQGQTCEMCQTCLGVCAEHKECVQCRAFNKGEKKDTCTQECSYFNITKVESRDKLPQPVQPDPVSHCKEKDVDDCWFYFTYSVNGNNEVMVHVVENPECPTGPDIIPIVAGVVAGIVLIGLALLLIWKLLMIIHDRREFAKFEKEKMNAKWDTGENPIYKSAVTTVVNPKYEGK
T1 sequence (P43406 31-988 limits assumed): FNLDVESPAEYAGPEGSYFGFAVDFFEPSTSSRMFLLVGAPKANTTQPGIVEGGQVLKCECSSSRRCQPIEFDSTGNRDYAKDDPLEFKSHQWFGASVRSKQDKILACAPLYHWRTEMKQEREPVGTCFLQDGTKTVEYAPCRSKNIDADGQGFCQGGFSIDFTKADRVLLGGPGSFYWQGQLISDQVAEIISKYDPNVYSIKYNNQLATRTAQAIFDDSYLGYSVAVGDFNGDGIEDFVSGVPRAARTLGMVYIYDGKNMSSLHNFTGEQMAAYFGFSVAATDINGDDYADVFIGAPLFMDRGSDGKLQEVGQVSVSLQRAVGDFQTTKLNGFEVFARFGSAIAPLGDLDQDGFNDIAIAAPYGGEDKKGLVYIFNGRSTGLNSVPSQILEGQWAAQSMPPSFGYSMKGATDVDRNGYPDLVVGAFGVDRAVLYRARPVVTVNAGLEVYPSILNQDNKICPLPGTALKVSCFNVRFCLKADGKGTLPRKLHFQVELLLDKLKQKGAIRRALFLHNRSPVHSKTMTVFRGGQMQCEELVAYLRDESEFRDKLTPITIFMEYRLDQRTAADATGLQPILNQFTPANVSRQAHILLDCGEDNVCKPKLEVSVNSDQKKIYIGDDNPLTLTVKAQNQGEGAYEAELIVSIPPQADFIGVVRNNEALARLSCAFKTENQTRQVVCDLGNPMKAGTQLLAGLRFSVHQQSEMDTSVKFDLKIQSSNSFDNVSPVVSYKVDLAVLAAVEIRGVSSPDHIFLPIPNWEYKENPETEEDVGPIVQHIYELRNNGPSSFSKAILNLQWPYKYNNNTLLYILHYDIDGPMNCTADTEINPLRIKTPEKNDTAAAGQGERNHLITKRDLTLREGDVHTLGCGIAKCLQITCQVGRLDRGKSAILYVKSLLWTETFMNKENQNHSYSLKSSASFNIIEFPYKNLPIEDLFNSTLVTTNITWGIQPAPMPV
T1 sequence (O70309 24-719 limits assumed): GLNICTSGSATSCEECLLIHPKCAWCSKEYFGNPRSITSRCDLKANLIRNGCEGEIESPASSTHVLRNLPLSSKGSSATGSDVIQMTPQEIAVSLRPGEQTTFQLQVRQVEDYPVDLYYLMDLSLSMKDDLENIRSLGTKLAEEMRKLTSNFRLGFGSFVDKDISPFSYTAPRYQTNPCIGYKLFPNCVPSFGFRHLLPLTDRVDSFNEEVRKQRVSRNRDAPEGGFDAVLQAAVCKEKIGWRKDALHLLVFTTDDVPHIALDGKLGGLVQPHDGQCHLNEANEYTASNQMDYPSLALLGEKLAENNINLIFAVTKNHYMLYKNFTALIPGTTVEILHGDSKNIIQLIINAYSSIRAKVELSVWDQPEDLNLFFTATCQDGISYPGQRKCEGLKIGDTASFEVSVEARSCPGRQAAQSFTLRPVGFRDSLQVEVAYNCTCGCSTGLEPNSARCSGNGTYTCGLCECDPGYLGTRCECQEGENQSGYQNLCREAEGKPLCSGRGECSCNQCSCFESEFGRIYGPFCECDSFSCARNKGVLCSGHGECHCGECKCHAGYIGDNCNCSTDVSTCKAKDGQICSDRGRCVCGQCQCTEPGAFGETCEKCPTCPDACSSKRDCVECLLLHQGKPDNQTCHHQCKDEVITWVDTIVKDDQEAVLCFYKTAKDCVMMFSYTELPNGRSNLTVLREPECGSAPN
T2 sequence (P43406 31-988 limits assumed): as the sequence (P43406 31-988 limits assumed) above
T2 sequence (O54890 26-717 limits assumed): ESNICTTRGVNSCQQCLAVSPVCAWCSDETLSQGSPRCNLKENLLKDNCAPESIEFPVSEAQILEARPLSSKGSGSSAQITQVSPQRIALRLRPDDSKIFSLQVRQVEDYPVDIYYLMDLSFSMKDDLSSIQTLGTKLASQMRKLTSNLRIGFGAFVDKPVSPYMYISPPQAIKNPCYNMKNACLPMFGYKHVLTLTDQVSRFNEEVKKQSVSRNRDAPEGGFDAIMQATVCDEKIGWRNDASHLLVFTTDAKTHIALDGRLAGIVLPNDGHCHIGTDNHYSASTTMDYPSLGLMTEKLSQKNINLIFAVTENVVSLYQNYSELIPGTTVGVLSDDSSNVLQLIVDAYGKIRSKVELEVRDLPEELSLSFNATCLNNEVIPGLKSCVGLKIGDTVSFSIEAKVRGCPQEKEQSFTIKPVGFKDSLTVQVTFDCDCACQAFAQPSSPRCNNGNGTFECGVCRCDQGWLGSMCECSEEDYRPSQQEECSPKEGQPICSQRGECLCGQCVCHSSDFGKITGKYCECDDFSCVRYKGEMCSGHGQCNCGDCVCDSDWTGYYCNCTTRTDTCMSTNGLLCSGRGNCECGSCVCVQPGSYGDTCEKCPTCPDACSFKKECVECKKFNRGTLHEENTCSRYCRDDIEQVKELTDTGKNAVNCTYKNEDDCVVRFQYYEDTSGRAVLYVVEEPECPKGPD

IC50 (mαvβ5): 48.3 nM | IC50 (mαvβ3): 0.9 nM | adhesion of mouse αvβ1-expressing CHOK1-α5KO cells (mouse αvβ1): potently reduced | inhibition of latent TGFβ activation, human αvβ1 co-culture (human αvβ1): strong inhibitory effect | cell adhesion of mouse αvβ5 on a vitronectin matrix (mouse αvβ5): decreased
SMILES: COc1ccc([C@H](CC(=O)O)N2CCN(CCCc3ccc4c(n3)NCCC4)C2=O)cn1 [MK-0429, (3S)-3-(6-methoxypyridin-3-yl)-3-[2-oxo-3-[3-(5,6,7,8-tetrahydro-1,8-naphthyridin-2-yl)propyl]imidazolidin-1-yl]propanoic acid]
αSMA intensity and the percentage of stimulated cells following TGFβ treatment [1]: significantly reduced | inhibiting αSMA induction [2]: minimal activity
